Laboratory results from patent US20160069865A1, “GM1 GANGLIOSIDOSIS HUMAN CELL MODEL AND USE THEREOF” (Korea Research Institute of Bioscience and Biotechnology, priority 2014, published 2016).

Key:
[1] = system: GM1-NPCs; test: Gene expression pattern in GM1-NPCs treated with inflammasome inhibitor (microarray, qPCR); type: cell-based, human; details: for direction of the gene expression pattern change: genes with changed expression in treated GM1-NPCs, FIG. 31, FIG. 33; for share of oligo probe pairs / genes displaying the changed expression pattern: microarray, total 27,375 oligo probe pairs, GM1-NPCs treated with 10 μM Z-YVAD-FMK or 1 μg/ml rhIL1RA
Method: To investigate whether or not the neural damage could be alleviated according to the increase of the activation of inflammasome related metabolic pathway in GM1, the gene expression pattern in GM1-NPCs treated with the inflammasome inhibitor was investigated.
Particularly, GM1-NPCs were differentiated according to the method described in Example <4-1>, and then treated with rhIL1RA or Z-YVAD-FMK by the same manner as described in Example <9-1>. Microarray was performed by the same manner as described in Example <7-1> in order to investigate the up- or down-regulation of the gene involved in inflammasome. […] WT-NPC was used as the normal control. As for the negative control, GM1-NPCs were treated with DMSO instead of rhIL1RA or Z-YVAD-FMK. The expression pattern (either up- or down regulation) and the mRNA expression level were investigated by the same manner as described above.

[2] = system: GM1-NPCs; test: Morphology of GM1-NPCs originated neurosphere after treatment with inflammasome inhibitors (phase-contrast microscopy); type: cell-based, human; details: GM1-iPSCs and neural progenitor cells differentiated from the same; summary statement
Method: To investigate the recovery of neural damage caused by the increased activation of inflammasome related metabolic pathway in GM1, GM1-NPCs were treated with the inflammasome inhibitors IL1β antagonist (rhIL1RA) and caspase-1 inhibitor (Z-YVAD-FMK), and then the morphology of GM1-NPCs was investigated.
Particularly, the differentiation of GM1-NPCs was induced by the same manner as described in Example <4-1>. Then, the induced GM1-NPCs were cultured in the culture medium respectively treated with 1 μg/ml rhIL1RA (R&D Systems, USA) or 10 μM Z-YVAD-FMK (Merck Millipore, Germany) in order to inhibit inflammasome therein. 2˜4 weeks later, the cultured GM1-NPCs originated neurosphere was obtained. The morphology of neurosphere was observed by phase-contrast microscopy.

[3] = GM1-NPCs treated with 10 μM Z-YVAD-FMK, FIG. 32

Molecule	increase of the reduced B4GALNT expression [1, 3]	reduction of GLB1 expression compared with that in GM1-NPCs [1, 3]	direction of the gene expression pattern change [1]	share of oligo probe pairs / genes displaying the changed expression pattern [1]	GM1 patient-specific cell morphology and gene expression pattern [2]
COC(=O)C[C@H](NC(=O)[C@H](C)NC(=O)[C@@H](NC(=O)C(Cc1ccc(O)cc1)NC(=O)OCc1ccccc1)C(C)C)C(=O)CF (stereo partly drawn) [Z-YVAD-FMK, methyl (3S)-3-[(2S)-2-[(2S)-2-(2-{[(benzyloxy)carbonyl]amino}-3-(4-hydroxyphenyl)propanamido)-3-methylbutanamido]propanamido]-5-fluoro-4-oxopentanoate]	2.6 fold	47%	tendency to recover their gene expression patterns changed by GM1 mediated neural damage back to the normal pattern	9.3%	recovering the GM1 patient-specific cell morphology and gene expression pattern to the normal ones
rhIL1RA: interleukin 1-receptor antagonist protein, SEQ. ID. NO: 2, commercial (cat #280-RA-050; R&D systems)			tendency to recover the abnormal gene expression in GM1 cells to the normal expression pattern	3.6%	recovering the GM1 patient-specific cell morphology and gene expression pattern to the normal ones
